Like-named read-outs stand apart in the source and are kept apart here.
Target: T1, α-Glucosidase (EC 3.2.1.20) from Saccharomyces cerevisiae (Saccharomyces cerevisiae, UniProt P53341)
T1 construct: purchased Sigma Chemical Co. (St. Louis, MO, USA)
Test: biochemical
Format: biochemical
Conditions: for inhibition at 1 µM / inhibition at 2.5 µM / inhibition at 5 µM / inhibition at 10 µM / inhibition at 25 µM / inhibition at 50 µM / inhibition at 100 µM / inhibition at 250 µM: read-out: Inhibition (I %); for α-glucosidase inhibitory activity (in words): tested at 1 to 250 µM
Method: α-Glucosidase (EC 3.2.1.20) from Saccharomyces cerevisiae (750 UN) and p-nitrophenyl-α-D-glucopyranoside were obtained from Sigma Chemical Co. (St. Louis, MO, USA). […] Silica gel 60, 40–63 µm (230–400 mesh ASTM), for column chromatography was purchased from Scharlau (Barcelona, Spain). Analytical and preparative TLC were carried out on precoated Kiesegel 60F254 or RP-18F254 plates (0.25 or 0.5 mm thickness) (Merck, Germany). Other chemicals were of the highest grade available.
The inhibitory activity of α-glucosidase was determined according to the modified method of Kim et al.. 3 mM p-nitrophenyl-α-D-glucopyranoside (25 μL) and 0.2 U/mL α-glucosidase (25 μL) in 0.01 M phosphate buffer (pH = 7.0) were added to the sample solution (625 μL) to start the reaction. Each reaction was carried out at 37 °C for 30 min and stopped by adding 0.1 M Na2CO3 (375 μL). […] One unit of α-glucosidase activity was defined as amount of enzyme liberating p-nitrophenol ([…]) per min.

[1] = isolated compounds, pH 7.0, 37 °C, 30 min, read-out: α-Glucosidase inhibitory activity IC50

T1 sequence (P53341 whole entry): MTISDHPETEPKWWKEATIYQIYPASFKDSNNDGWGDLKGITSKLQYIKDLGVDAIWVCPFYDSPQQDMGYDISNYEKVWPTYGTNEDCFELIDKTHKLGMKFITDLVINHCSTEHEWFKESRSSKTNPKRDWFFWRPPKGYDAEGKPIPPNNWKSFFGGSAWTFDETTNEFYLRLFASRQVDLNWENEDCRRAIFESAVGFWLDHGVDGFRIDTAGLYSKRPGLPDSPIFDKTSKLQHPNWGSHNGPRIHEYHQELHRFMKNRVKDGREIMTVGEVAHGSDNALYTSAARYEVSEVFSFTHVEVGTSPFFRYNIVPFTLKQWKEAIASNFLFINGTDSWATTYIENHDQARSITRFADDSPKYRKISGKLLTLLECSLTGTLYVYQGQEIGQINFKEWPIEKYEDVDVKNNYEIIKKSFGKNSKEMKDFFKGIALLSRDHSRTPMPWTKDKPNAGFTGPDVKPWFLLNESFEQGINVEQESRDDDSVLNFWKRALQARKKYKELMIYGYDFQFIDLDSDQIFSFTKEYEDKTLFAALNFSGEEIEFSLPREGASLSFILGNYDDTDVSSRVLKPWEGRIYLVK

Structure (SMILES)	IC50 [1] [µM]	inhibition at 1 µM [%]	inhibition at 2.5 µM [%]	inhibition at 5 µM [%]	inhibition at 10 µM [%]	inhibition at 25 µM [%]	inhibition at 50 µM [%]	inhibition at 100 µM [%]	α-glucosidase inhibitory activity (in words)	IC50 [µM]	inhibition at 250 µM [%]
CCC(CCC(C)C1CCC2C3CC=C4CC(OC(=O)CCCCCCCC(=O)O)CCC4(C)C3CCC12C)C(C)C (stereo not drawn) [Compound 2, 3β-(8-carboxyoctanoyl)sitosterol]	2.5	15.2 ± 1.2	50.8 ± 1.1	82.6 ± 1.4	93.1 ± 1.2	–	–	–	–	–	–
CCCCCCCCCCCCCCCC(=O)OC[C@H]1O[C@@H](O[C@H]2CC[C@@]3(C)C(=CC[C@H]4[C@@H]5CC[C@H]([C@H](C)CC[C@@H](CC)C(C)C)[C@@]5(C)CC[C@@H]43)C2)[C@H](O)[C@@H](O)[C@@H]1O [Compound 5, β-sitosteryl-3-O-β-D-glucopyranosyl-6′-O-palmitate]	21.1	–	–	–	32.1 ± 2.3	49.7 ± 3.1	75.9 ± 2.6	90.9 ± 1.4	–	–	–
CC[C@H](CC[C@@H](C)[C@H]1CC[C@H]2[C@@H]3CC(=O)C4CC(=O)CC[C@]4(C)[C@H]3CC[C@]12C)C(C)C (stereo partly shown) [Compound 4, stigmastane-3,6-dione]	> 250	–	–	–	–	–	–	–	inactive	–	–
CC(=CCCC(C)C1CCC2(C)C3CCC4C(C)(C)C(O)CCC45CC35CCC12C)C(=O)O (stereo not shown) [Compound 9, ambolic acid]	–	–	–	–	–	–	15.9 ± 1.1	32.2 ± 1	–	112	95.9 ± 1
CC[C@H](CC[C@@H](C)[C@H]1CC[C@H]2[C@@H]3CC=C4C[C@@H](O)CC[C@]4(C)[C@H]3CC[C@]12C)C(C)C [Compound 3, β-sitosterol]	> 250	–	–	–	–	–	–	–	inactive	–	–
CCCCCCCCCCCCCCCCCCC(=O)OC1CCC2(C)C(=CCC3C2CCC2(C)C(C(C)CCC(CC)C(C)C)CCC32)C1 (stereo not drawn) [Compound 1, 3β-nonadecanoylsitosterol]	27.7	–	–	–	24.4 ± 1.8	38.6 ± 1.2	67.7 ± 1.4	91.8 ± 1.1	–	–	–
C[C@H]1O[C@H](O[C@H]2[C@H](O)[C@@H](O)[C@@H](O[C@H]3[C@H](O)[C@@H](O)C(O)O[C@@H]3CO)O[C@@H]2CO)[C@H](O)[C@@H](O)[C@@H]1N[C@H]1C=C(CO)[C@@H](O)[C@H](O)[C@H]1O (stereo partly shown) [Acarbose, reference compound]	–	–	–	–	–	–	9.8 ± 1.1	21.2 ± 2.2	–	–	59.8 ± 1.2
CC(=CCCC(C)C1CCC2(C)C3CCC4C(C)(C)C(=O)CCC45CC35CCC12C)C(=O)O (stereo not shown) [Compound 8, ambonic acid]	–	46.5 ± 1.1	62.5 ± 1.1	78.4 ± 1.6	87.5 ± 1	–	–	–	–	1.2	–

From publication PMC4955201, “α-Glucosidase inhibitors from the bark of Mangifera mekongensis” (Chemistry Central Journal, 2016)
